Values quoted from earlier work, collected in patent US20060115514A1, “Chelating and binding chemicals to a medical implant, medical device formed, and therapeutic applications” (priority 2004, published 2006).

How the values were obtained:
[1] = test system: neointimal formation after balloon injury; conditions: after balloon injury in rats
restenosis = conditions: oral administration

SMILES	neointimal formation [1]	incidence of adverse events (restenosis)
N=C(N)c1ccc2cc(OC(=O)c3ccc(N=C(N)N)cc3)ccc2c1 [FUT-175]	inhibits	–
CO[C@H]1C[C@@H]2CC[C@@H](C)[C@@](O)(O2)C(=O)C(=O)N2CCCC[C@H]2C(=O)O[C@H]([C@H](C)C[C@@H]2CC[C@@H](O)[C@H](OC)C2)CC(=O)[C@H](C)/C=C(\C)[C@@H](O)[C@@H](OC)C(=O)[C@H](C)C[C@H](C)/C=C/C=C/C=C/1C [sirolimus]	–	higher incidence of adverse events
